Data as given in a melting point compilation (Tetko et al.; mined from patent text by program, amines drawn as free bases though some values may be those of a salt).

melting point [°C]	SMILES
145 to 147	Cc1[nH]c(C(=O)Nc2ccc3c(c2)OCCO3)c(C)c1-c1nc2ccc(C(=O)c3ccccc3)cc2[nH]1
128 to 129	CN(C)Cc1ccccc1Sc1ccc([N+](=O)[O-])cc1[N+](=O)[O-]
262 to 264	Fc1ccccc1N1CCN(Cc2nc3ccccc3[nH]2)CC1
90 to 91	NNc1ccc(Cl)cc1Cl
220 to 221	Cn1c(=O)c2[nH]cnc2n(CCCC(=O)O)c1=O
147 to 149	CNC(=O)C1=CC(COC)(COC)Oc2ccc([N+](=O)[O-])cc21
205	COc1cccc(OC)c1-c1cc(C(=O)NC2(C(=O)O)C3CC4CC(C3)CC2C4)nn1-c1ccc(N)cc1C (stereo unspecified)
102 to 104	CCO/N=C(/C(=O)OCC)c1ccc(OCCOc2ccc3ccccc3c2)s1
173 to 176	COc1cc(OC)c(C(=O)CC(=O)c2cc(OC)c(OC)cc2OC)cc1OC
143 to 144	CCOC(=O)C(=C(c1ccc(F)cc1)c1ccc(F)cc1)c1nnn(C(C)(C)C)n1
174 to 177	O=c1c2c(Cc3cccc(OC(F)(F)F)c3)n[nH]c2c2cccnc2n1-c1cccc(OC(F)(F)F)c1
94 to 99	CCCn1cc(Cc2ccc(C(=O)O)cc2OC)c2cc(CC3CCN(CC)C3=O)ccc21 (stereo unspecified)
43 to 47	FC(F)(F)c1ccccc1CC[C@H]1CNCCN1
119 to 122	COc1ccc2c(c1)CC(C(=O)O)CC2 (stereo unspecified)
55 to 60	O=C1CCN(Cc2cccnc2)C(=O)C1
91 to 96	Cc1c(C)c2c(c(C)c1OCc1ccccc1)CCC(C)(CC(=O)O)O2 (stereo unspecified)
157 to 159	OCC1CCC(O)C1O (stereo unspecified)
96 to 98	CCCN1c2ccccc2N(C)C(=O)c2cccnc21

melting point [°C]	SMILES
77	CCONCCCC=C1C(=O)CC(c2ccc(Cl)cc2)CC1=O (stereo unspecified)
245 to 246	Nc1nnc(-c2ccc3occ(-c4cc(F)ccc4F)c3c2)o1
92 to 93	COC(=O)c1ccc(-c2cc(-c3cc4c(cc3C)CCCC4(C)C)[nH]n2)cc1
278 to 280	Cc1nc2ccccn2c1C1=NNC(=O)CO1
197	CCC1OC(=O)N(CCc2ccc(NC(=O)c3cccs3)cc2)N=C1c1ccc(OC)c(OC)c1 (stereo unspecified)
114 to 115	CCOC(=O)Nc1c(F)cc(Cl)c2c1OC(C)(C)C2
41	COC1=C(OC)C(=O)C(CCCCCCCCCCCOC(C)=O)=C(C)C1=O
172 to 175	COc1ccc(C(=O)Nc2ccccc2)cc1NCc1cccc([N+](=O)[O-])c1
124 to 125	NS(=O)(=O)c1ncccc1F
59 to 62	CCOC(=O)COc1ccc(N)cc1Cl
207 to 208	CC(=O)Nc1cncc(NC(=NC#N)NC2(c3ccccc3)CCC2)c1
163 to 165	O=C(O)c1cc2cc(OCc3ccccc3)ccc2cc1OCc1ccccc1
184 to 186	COC(=O)c1nc2ccc(Cl)cc2n1Cc1ccccc1
160	CCOC(=O)N1CCC(Cc2nc3ccccc3n2Cc2cccc(C)n2)CC1
235	CC1=CC(c2cccc(Cl)c2Cl)C(c2nnco2)=C(C)N1 (stereo unspecified)
80 to 82	CCC1(CC)c2cc(C)c(C)cc2C(CC)(CC)N1OC(C)=O
84 to 86	CCNC(=O)ON(C(C)=O)C(=O)NCC
105 to 110	NOCc1ccn(C(c2ccccc2)(c2ccccc2)c2ccccc2)n1

SMILES	melting point [°C]
Cc1cc2c(c(C)c1O)C(C)(C)C(C)C2C (stereo unspecified)	55 to 57
CNC(=C[N+](=O)[O-])NCc1ccc(Cl)nc1	181 to 183
COC(=O)C(=O)O[C@H]1C[C@@H](C(=O)OC)[C@]2(C)CC[C@H]3C(=O)O[C@H](c4ccoc4)C[C@]3(C)[C@H]2C1=O	241 to 244
COc1cc(C2C3=C(COC3=O)Nc3ccc4cn[nH]c4c32)cc(OC)c1OC (stereo unspecified)	278 to 279
CN(C)c1ccc(C=C2C(=O)NC(=S)NC2=O)cc1	272
